Measurements taken from the kinase profiling compilation of Christmann-Franck et al. (2016).

Assays:
Test in all cases: KINOMEscan competition binding
Settings in all cases: compound 10.0 µM
[1] = molecular target: STK17A (human) (UniProt Q9UEE5)
[2] = molecular target: NTRK2 (human) (UniProt Q16620)
[3] = molecular target: YES1 (human) (UniProt P07947)
[4] = molecular target: SRPK2 (human) (UniProt P78362)
[5] = molecular target: MAPK8 (human) (UniProt P45983)
[6] = molecular target: PIM3 (human) (UniProt Q86V86)
[7] = molecular target: CDK16 (human) (UniProt Q00536)
[8] = molecular target: SGK110 (human) (UniProt P0C264)
[9] = tested on: KIT (human), P10721 [V559D]
[10] = molecular target: NEK7 (human) (UniProt Q8TDX7)
[11] = molecular target: STK17B (human) (UniProt O94768)
[12] = molecular target: STK4 (human) (UniProt Q13043)
[13] = molecular target: ANKK1 (human) (UniProt Q8NFD2)
[14] = molecular target: PHKG1 (human) (UniProt Q16816)
[15] = molecular target: MYLK2 (human) (UniProt Q9H1R3)
[16] = molecular target: LIMK2 (human) (UniProt P53671)
[17] = molecular target: PLK3 (human) (UniProt Q9H4B4)
[18] = molecular target: ABL2 (human) (UniProt P42684)
[19] = molecular target: MAP2K6 (human) (UniProt P52564)
[20] = molecular target: TAOK3 (human) (UniProt Q9H2K8)
[21] = molecular target: MAPK14 (human) (UniProt Q16539)
[22] = molecular target: PIK3CD (human) (UniProt O00329)
[23] = molecular target: MYO3B (human) (UniProt Q8WXR4)
[24] = molecular target: MAPK9 (human) (UniProt P45984)
[25] = molecular target: DCLK1 (human) (UniProt O15075)
[26] = molecular target: LATS1 (human) (UniProt O95835)
[27] = molecular target: PRKAA1 (human) (UniProt Q13131)
[28] = molecular target: PIK3C2B (human) (UniProt O00750)
[29] = molecular target: RIOK2 (human) (UniProt Q9BVS4)
[30] = molecular target: SLK (human) (UniProt Q9H2G2)
[31] = molecular target: EPHA8 (human) (UniProt P29322)
[32] = molecular target: CDC42BPA (human) (UniProt Q5VT25)
[33] = molecular target: MAP3K10 (human) (UniProt Q02779)
[34] = molecular target: MAP3K9 (human) (UniProt P80192)
[35] = tested on: ABL1 (human), P00519 [M351T]
[36] = molecular target: INSRR (human) (UniProt P14616)
[37] = molecular target: CSNK1A1L (human) (UniProt Q8N752)
[38] = molecular target: MKNK2 (human) (UniProt Q9HBH9)
[39] = molecular target: STK11 (human) (UniProt Q15831)
[40] = molecular target: SRC (human) (UniProt P12931)

Chain of CDK16 (human) (Q00536 whole entry, looked up): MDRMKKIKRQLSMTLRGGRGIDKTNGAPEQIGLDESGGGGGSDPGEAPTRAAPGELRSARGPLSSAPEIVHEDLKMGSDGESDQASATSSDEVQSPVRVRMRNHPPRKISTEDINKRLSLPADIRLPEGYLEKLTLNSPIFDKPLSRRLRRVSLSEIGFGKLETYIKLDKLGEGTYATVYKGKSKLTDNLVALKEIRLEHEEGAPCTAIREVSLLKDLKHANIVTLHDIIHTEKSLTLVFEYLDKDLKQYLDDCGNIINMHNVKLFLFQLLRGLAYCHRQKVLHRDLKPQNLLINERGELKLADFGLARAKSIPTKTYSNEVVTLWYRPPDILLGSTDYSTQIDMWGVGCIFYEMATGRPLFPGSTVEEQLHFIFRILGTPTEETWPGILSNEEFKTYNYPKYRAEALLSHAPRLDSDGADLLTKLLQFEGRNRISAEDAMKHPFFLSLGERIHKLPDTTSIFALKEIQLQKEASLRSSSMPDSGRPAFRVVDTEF
Chain of STK11 (human) (Q15831 whole entry, looked up): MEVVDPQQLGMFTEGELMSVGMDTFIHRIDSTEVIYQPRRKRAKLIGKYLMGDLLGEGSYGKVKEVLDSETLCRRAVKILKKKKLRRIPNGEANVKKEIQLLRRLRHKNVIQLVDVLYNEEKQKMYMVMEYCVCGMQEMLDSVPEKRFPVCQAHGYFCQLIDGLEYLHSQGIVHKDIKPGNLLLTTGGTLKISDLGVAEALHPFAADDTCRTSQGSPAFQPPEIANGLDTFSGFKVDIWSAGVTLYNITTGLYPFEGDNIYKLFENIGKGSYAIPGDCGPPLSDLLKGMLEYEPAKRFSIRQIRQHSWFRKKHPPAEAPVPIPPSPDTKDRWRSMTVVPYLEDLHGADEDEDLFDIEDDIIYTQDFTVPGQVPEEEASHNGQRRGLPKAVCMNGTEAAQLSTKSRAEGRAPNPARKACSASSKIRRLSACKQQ
Chain of MAP3K10 (human) (Q02779 whole entry, looked up): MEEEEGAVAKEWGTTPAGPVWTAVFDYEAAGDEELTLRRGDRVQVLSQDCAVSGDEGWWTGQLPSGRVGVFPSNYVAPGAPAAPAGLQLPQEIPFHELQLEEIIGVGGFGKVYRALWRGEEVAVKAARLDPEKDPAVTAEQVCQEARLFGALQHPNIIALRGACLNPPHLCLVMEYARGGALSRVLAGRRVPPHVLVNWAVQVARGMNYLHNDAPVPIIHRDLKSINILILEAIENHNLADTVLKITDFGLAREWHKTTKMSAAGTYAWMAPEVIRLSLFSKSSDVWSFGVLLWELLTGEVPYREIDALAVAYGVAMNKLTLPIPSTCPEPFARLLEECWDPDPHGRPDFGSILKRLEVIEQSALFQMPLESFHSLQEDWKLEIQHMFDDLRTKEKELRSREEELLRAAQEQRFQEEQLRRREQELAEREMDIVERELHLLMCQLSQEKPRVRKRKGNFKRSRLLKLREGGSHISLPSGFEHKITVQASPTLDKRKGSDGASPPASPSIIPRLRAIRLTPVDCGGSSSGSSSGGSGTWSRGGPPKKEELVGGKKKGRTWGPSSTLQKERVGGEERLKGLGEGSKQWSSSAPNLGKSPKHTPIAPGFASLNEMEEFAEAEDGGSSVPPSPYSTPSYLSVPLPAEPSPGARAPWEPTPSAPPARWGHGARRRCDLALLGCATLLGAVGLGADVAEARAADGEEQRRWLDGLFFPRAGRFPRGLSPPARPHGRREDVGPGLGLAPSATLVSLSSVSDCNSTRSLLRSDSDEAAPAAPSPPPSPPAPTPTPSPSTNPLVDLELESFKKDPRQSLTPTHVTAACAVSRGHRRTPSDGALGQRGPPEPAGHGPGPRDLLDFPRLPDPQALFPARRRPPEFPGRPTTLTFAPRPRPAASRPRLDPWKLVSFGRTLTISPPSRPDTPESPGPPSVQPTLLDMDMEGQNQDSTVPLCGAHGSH
Chain of PLK3 (human) (Q9H4B4 whole entry, looked up): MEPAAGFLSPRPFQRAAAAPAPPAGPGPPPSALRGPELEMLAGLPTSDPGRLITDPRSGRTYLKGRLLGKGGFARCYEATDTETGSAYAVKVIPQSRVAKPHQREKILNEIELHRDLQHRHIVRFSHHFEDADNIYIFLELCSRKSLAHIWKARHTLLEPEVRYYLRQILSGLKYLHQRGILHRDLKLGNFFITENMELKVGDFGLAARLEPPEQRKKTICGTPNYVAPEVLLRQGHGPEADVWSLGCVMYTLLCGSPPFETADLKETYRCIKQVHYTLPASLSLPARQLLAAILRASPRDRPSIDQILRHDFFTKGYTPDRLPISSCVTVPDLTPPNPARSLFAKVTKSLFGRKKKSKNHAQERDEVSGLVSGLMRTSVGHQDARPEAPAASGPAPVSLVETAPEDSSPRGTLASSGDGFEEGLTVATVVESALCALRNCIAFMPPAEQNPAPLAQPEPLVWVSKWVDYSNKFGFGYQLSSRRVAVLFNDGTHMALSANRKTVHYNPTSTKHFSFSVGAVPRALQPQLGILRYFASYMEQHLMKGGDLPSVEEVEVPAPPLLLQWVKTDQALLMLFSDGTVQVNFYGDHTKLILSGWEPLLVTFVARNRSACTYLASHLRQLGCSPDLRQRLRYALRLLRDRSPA
Chain of CDC42BPA (human) (Q5VT25 whole entry, looked up): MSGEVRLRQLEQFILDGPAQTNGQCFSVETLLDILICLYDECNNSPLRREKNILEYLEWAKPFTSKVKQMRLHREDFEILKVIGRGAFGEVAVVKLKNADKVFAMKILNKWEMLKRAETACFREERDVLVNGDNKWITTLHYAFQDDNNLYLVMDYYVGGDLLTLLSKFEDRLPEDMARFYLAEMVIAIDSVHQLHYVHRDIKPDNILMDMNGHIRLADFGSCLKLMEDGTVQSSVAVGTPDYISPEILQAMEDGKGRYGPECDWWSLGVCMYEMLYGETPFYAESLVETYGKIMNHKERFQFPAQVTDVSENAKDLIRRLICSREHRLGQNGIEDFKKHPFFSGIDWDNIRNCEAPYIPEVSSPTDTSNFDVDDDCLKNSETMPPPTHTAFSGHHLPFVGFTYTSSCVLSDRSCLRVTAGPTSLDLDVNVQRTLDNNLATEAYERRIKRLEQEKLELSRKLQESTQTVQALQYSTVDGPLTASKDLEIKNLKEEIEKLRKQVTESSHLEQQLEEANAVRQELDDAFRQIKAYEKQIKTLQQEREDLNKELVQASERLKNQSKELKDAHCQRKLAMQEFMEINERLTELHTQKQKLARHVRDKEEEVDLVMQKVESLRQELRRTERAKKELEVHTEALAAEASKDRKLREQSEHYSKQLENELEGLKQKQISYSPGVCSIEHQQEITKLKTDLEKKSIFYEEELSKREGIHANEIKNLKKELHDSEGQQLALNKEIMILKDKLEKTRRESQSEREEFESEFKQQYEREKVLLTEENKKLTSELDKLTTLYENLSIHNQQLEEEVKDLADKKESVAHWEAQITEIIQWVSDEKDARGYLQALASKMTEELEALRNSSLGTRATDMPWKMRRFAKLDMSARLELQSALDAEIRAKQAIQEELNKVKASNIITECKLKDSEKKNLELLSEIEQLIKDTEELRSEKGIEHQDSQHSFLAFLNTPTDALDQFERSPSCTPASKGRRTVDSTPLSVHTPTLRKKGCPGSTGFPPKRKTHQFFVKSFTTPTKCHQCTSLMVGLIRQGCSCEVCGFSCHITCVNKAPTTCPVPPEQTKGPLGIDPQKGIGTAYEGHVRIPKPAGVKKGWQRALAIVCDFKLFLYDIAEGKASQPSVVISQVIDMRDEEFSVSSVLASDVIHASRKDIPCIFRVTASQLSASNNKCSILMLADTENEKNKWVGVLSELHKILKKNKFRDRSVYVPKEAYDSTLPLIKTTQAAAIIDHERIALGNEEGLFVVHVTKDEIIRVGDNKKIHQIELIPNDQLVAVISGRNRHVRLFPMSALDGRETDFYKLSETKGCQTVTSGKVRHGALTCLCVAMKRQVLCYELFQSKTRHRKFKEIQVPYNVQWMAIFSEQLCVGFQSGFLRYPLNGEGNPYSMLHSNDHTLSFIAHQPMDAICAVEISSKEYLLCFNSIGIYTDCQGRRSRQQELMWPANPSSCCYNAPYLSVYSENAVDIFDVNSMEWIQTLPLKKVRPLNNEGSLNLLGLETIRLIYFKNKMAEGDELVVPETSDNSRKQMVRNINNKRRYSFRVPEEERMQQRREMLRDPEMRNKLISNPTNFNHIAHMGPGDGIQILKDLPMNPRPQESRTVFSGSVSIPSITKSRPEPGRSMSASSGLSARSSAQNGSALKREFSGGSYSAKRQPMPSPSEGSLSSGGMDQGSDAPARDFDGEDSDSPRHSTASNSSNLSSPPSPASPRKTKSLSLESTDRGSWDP
Chain of STK17B (human) (O94768 whole entry, looked up): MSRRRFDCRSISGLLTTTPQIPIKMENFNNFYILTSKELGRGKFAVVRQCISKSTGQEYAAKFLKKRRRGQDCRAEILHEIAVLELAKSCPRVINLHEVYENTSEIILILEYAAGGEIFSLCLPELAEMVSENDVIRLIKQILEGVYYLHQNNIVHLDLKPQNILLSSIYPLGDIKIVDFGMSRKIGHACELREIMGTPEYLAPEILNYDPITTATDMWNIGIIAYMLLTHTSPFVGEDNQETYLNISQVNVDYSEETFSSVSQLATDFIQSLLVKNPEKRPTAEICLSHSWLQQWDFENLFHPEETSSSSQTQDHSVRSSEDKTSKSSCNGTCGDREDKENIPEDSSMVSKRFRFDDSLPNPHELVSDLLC
Chain of CSNK1A1L (human) (Q8N752 whole entry, looked up): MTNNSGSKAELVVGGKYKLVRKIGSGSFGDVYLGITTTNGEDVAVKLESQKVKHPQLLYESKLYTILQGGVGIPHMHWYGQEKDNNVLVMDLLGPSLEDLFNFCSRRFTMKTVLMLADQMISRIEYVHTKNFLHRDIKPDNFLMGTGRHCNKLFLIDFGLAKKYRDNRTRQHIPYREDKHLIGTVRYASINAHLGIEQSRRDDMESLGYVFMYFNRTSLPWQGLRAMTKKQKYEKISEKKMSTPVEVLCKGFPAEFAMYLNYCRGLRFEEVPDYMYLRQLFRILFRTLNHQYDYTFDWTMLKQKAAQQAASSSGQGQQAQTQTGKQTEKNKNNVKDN

| SMILES | kinase still bound, per cent of control [1] | kinase still bound, per cent of control [2] | kinase still bound, per cent of control [3] | kinase still bound, per cent of control [4] | kinase still bound, per cent of control [5] | kinase still bound, per cent of control [6] | kinase still bound, per cent of control [7] | kinase still bound, per cent of control [8] | kinase still bound, per cent of control [9] | kinase still bound, per cent of control [10] | kinase still bound, per cent of control [11] | kinase still bound, per cent of control [12] | kinase still bound, per cent of control [13] | kinase still bound, per cent of control [14] | kinase still bound, per cent of control [15] | kinase still bound, per cent of control [16] | kinase still bound, per cent of control [17] | kinase still bound, per cent of control [18] | kinase still bound, per cent of control [19] | kinase still bound, per cent of control [20] | other results |
| --- | --- | --- | --- | --- | --- | --- | --- | --- | --- | --- | --- | --- | --- | --- | --- | --- | --- | --- | --- | --- | --- |
| CCN1CCN(Cc2ccc(Nc3ncc4c(n3)N(C)c3ccccc3C(=O)N4C)cc2C(F)(F)F)CC1 | 100% | 60% | 6.6% | 81% | 100% | 84% | 92% | 0.6% | 56% | 88% | 100% | 72% | 18% | 100% | 88% | 85% | 100% | 3% | 75% | 0.1% | kinase still bound, per cent of control [21]: 100%; kinase still bound, per cent of control [22]: 0%; kinase still bound, per cent of control [23]: 100%; kinase still bound, per cent of control [24]: 57%; kinase still bound, per cent of control [25]: 4.4%; kinase still bound, per cent of control [26]: 100%; kinase still bound, per cent of control [27]: 2.4%; kinase still bound, per cent of control [28]: 71%; kinase still bound, per cent of control [29]: 100%; kinase still bound, per cent of control [30]: 2.4%; kinase still bound, per cent of control [31]: 100%; kinase still bound, per cent of control [32]: 70%; kinase still bound, per cent of control [33]: 100%; kinase still bound, per cent of control [34]: 58%; kinase still bound, per cent of control [35]: 0.65%; kinase still bound, per cent of control [36]: 100%; kinase still bound, per cent of control [37]: 74%; kinase still bound, per cent of control [38]: 0.2%; kinase still bound, per cent of control [39]: 89%; kinase still bound, per cent of control [40]: 2% |
| N#Cc1c(NC(=O)c2cccc3ccccc23)sc2c1CCCC2 | 100% | 100% | 78% | 100% | 60% | 100% | 100% | 91% | 60% | 84% | 100% | 94% | 78% | 100% | 100% | 100% | 100% | 86% | 100% | 87% | kinase still bound, per cent of control [21]: 100%; kinase still bound, per cent of control [22]: 100%; kinase still bound, per cent of control [23]: 88%; kinase still bound, per cent of control [24]: 4.8%; kinase still bound, per cent of control [25]: 100%; kinase still bound, per cent of control [26]: 93%; kinase still bound, per cent of control [27]: 80%; kinase still bound, per cent of control [28]: 100%; kinase still bound, per cent of control [29]: 91%; kinase still bound, per cent of control [30]: 82%; kinase still bound, per cent of control [31]: 79%; kinase still bound, per cent of control [32]: 100%; kinase still bound, per cent of control [33]: 100%; kinase still bound, per cent of control [34]: 72%; kinase still bound, per cent of control [35]: 98%; kinase still bound, per cent of control [36]: 100%; kinase still bound, per cent of control [37]: 66%; kinase still bound, per cent of control [38]: 92%; kinase still bound, per cent of control [39]: 81%; kinase still bound, per cent of control [40]: 81% |
| C=CC(=O)Nc1cccc(Nc2nc(N[C@H]3CC[C@H](N(C)C)CC3)nc3c2ncn3C(C)C)c1 | 100% | 5.3% | 23% | 92% | 100% | 75% | 100% | 88% | 42% | 76% | 22% | 78% | 62% | 57% | 90% | 100% | 100% | 94% | 100% | 28% | kinase still bound, per cent of control [21]: 95%; kinase still bound, per cent of control [22]: 92%; kinase still bound, per cent of control [23]: 100%; kinase still bound, per cent of control [24]: 100%; kinase still bound, per cent of control [25]: 30%; kinase still bound, per cent of control [26]: 100%; kinase still bound, per cent of control [27]: 78%; kinase still bound, per cent of control [28]: 100%; kinase still bound, per cent of control [29]: 66%; kinase still bound, per cent of control [30]: 26%; kinase still bound, per cent of control [31]: 100%; kinase still bound, per cent of control [32]: 82%; kinase still bound, per cent of control [33]: 84%; kinase still bound, per cent of control [34]: 17%; kinase still bound, per cent of control [35]: 71%; kinase still bound, per cent of control [36]: 64%; kinase still bound, per cent of control [37]: 1.5%; kinase still bound, per cent of control [38]: 39%; kinase still bound, per cent of control [39]: 66%; kinase still bound, per cent of control [40]: 4% |
